# System: Myo5 SH3 domain
# Assay: SPOT analysis of cellulose-bound peptides (WISE), Myo5 SH3 domain (Dataset S4)
# Type: binding, Saccharomyces cerevisiae
# Details: for The normalized value in BLU units: Myo5 SH3 domain
# [1] = SPOT analysis of membrane-synthesized peptides probed with Myo5 SH3 domain, normalized value
# [2] = SPOT analysis of cellulose-bound 14-mer yeast proteome peptides, normalized value, mean where the peptide was synthesized more than once
# [3] = SPOT analysis of membrane-bound peptides, normalized value (see methods)
# [4] = SPOT analysis of cellulose-bound peptides probed with Myo5 SH3 domain, normalized value
sequence,measurement,setting,value
NPFVRINPNRPEAA,"The normalized value in BLU units (SPOT analysis, Myo5 SH3)",[1],275.9 BLU
LIWHKNKPTKPDNK,The normalized value in BLU units,[2],300.3 BLU
SPLSWSGPLTPPTF,The normalized value in BLU units,[2],168.0 BLU
TLFRFIVPFNPYFS,The normalized value in BLU units,[2],881.8 BLU
AARILANPDHPFSR,The normalized value in BLU units,[2],165.5 BLU
YSTNRGIPARPCKD,The normalized value in BLU units,[2],271.3 BLU
HSTPKPLPPVPALS,"The normalized value in BLU units (SPOT analysis, Myo5 SH3)",[1],143.5 BLU
EEEAKSVPPIPADQ,"The normalized value in BLU units (SPOT analysis, Myo5 SH3)",[1],29.4 BLU
TYLTRPLPSTPNED,The normalized value in BLU units,[2],101.0 BLU
NIFQKQLPKMPKEY,"The normalized value in BLU units (SPOT analysis, Myo5 SH3)",[1],276.2 BLU
LDKGKHVPSKPVSN,The normalized value in BLU units,[3],200.9 BLU
GTVTKTAPSFPQSS,"The normalized value in BLU units (SPOT analysis, Myo5 SH3)",[1],261.1 BLU
LEDALHVPTNPEIL,"The normalized value in BLU units (SPOT analysis, Myo5 SH3)",[4],191.1 BLU
TGGGRIVPGVPPGA,"The normalized value in BLU units (SPOT analysis, Myo5 SH3)",[1],118.4 BLU
RLLFRSLPPHPACL,The normalized value in BLU units,[3],745.7 BLU
PFGTFTLPADPEYK,The normalized value in BLU units,[2],171.6 BLU
TPTPHPHPHTPHPH,The normalized value in BLU units,[2],157.9 BLU
SETARKVPPIPTQI,The normalized value in BLU units,[3],420.1 BLU
GPIIHPGPEPPRYD,The normalized value in BLU units,[2],205.1 BLU
LPEPRFYPLSPKNN,The normalized value in BLU units,[3],289.3 BLU
ALWAKFFPEKPLNI,The normalized value in BLU units,[2],154.0 BLU
GRSLRKRPTSPSIS,The normalized value in BLU units,[3],819.6 BLU
FASQLRKPRAPMRN,"The normalized value in BLU units (SPOT analysis, Myo5 SH3)",[4],459.9 BLU
GWSTYIPPFNPLEI,The normalized value in BLU units,[2],113.7 BLU
PPEGFPEPLNPTNF,"The normalized value in BLU units (SPOT analysis, Myo5 SH3)",[4],86.0 BLU
KNIIKYVPWGPPLE,The normalized value in BLU units,[2],164.4 BLU
AKDYRFNPAIPLRI,"The normalized value in BLU units (SPOT analysis, Myo5 SH3)",[1],304.4 BLU
APVVKSEPSLPRMR,"The normalized value in BLU units (SPOT analysis, Myo5 SH3)",[1],241.2 BLU
SPFSLFIPTIPATT,"The normalized value in BLU units (SPOT analysis, Myo5 SH3)",[4],151.7 BLU
TLRSMIPPFTPQLD,The normalized value in BLU units,[2],412.7 BLU
TPPPPPLPSVLSS,"The normalized value in BLU units (SPOT analysis, Myo5 SH3)",[4],25804 BLU
KPSGYYGPNSPLKL,The normalized value in BLU units,[2],159.2 BLU
KLHEKYFPDLPKEV,The normalized value in BLU units,[3],110.4 BLU
FQYTKGRPLAPKGA,The normalized value in BLU units,[3],235.2 BLU
SPKKLASPRTPNAN,"The normalized value in BLU units (SPOT analysis, Myo5 SH3)",[4],276.2 BLU
EPPSWKPPDLPIRL,"The normalized value in BLU units (SPOT analysis, Myo5 SH3)",[4],86972.2 BLU
PIVKKNVPKPPPLV,"The normalized value in BLU units (SPOT analysis, Myo5 SH3)",[1],153.6 BLU
INVEREAPMFPVPY,The normalized value in BLU units,[2],148.9 BLU
EKEAKSEPQQPEDN,The normalized value in BLU units,[3],139.0 BLU
AGMAKTKPDVPLSY,The normalized value in BLU units,[3],157.7 BLU
AELFLRRPIFPGRD,"The normalized value in BLU units (SPOT analysis, Myo5 SH3)",[4],215.9 BLU
PPPPLPPPLFPSSS,"The normalized value in BLU units (SPOT analysis, Myo5 SH3)",[4],38483.6 BLU
PQQNRPLPQLPNRN,The normalized value in BLU units,[3],186.1 BLU
YVVKKNFPVSPNYT,The normalized value in BLU units,[3],193.9 BLU
DLSYYLRPIKPFNT,"The normalized value in BLU units (SPOT analysis, Myo5 SH3)",[4],160.7 BLU
SPSQYQYPSQPALS,The normalized value in BLU units,[2],65.2 BLU
NEAPMLSPQRPYST,The normalized value in BLU units,[2],111.3 BLU
VLEAYNVPTPPRLE,The normalized value in BLU units,[2],57.4 BLU
QELPMEVPKEPAPA,"The normalized value in BLU units (SPOT analysis, Myo5 SH3)",[4],138.8 BLU
DLDWRKIPFLPKEI,The normalized value in BLU units,[2],250.1 BLU
PGGPKFEPLYPREE,"The normalized value in BLU units (SPOT analysis, Myo5 SH3)",[1],90.0 BLU
DFVTLHVPATPETE,The normalized value in BLU units,[2],190.5 BLU
NAIEMALPNDPYPA,"The normalized value in BLU units (SPOT analysis, Myo5 SH3)",[4],87.2 BLU
VCHSKYIPLKPIQD,The normalized value in BLU units,[3],298.3 BLU
PPPPMGQPKDPKFE,"The normalized value in BLU units (SPOT analysis, Myo5 SH3)",[4],248.1 BLU
EFDEKLPPKKPAGP,The normalized value in BLU units,[2],87.3 BLU
KPKVLFHPHWPLYI,The normalized value in BLU units,[2],195.5 BLU
GHKKKNLPKFPKNK,"The normalized value in BLU units (SPOT analysis, Myo5 SH3)",[1],789.2 BLU
NFPSLIDPHVPTYG,The normalized value in BLU units,[2],97.4 BLU
EEMGMEEPQAPEAF,"The normalized value in BLU units (SPOT analysis, Myo5 SH3)",[4],127.9 BLU
AMESRVAPEIPGLI,The normalized value in BLU units,[3],426.0 BLU
HFNTKKIPELPSQF,The normalized value in BLU units,[3],466.9 BLU
EKNARGIPQAPFIE,The normalized value in BLU units,[3],135.6 BLU
SQKKKALPKQPKAS,The normalized value in BLU units,[3],492.9 BLU
DKIFKTDPNEPAND,"The normalized value in BLU units (SPOT analysis, Myo5 SH3)",[1],99.1 BLU
FWKIHLSPPLPSFK,"The normalized value in BLU units (SPOT analysis, Myo5 SH3)",[4],965.5 BLU
NEGDLYPPEQPGVD,"The normalized value in BLU units (SPOT analysis, Myo5 SH3)",[4],80.1 BLU
KPPSYPSPAQPPKS,"The normalized value in BLU units (SPOT analysis, Myo5 SH3)",[4],11899.6 BLU
YSYLRLLPWWPSLA,"The normalized value in BLU units (SPOT analysis, Myo5 SH3)",[1],187.6 BLU
NGMPRRIPDYPDAF,"The normalized value in BLU units (SPOT analysis, Myo5 SH3)",[1],223.3 BLU
MKAYRANPPLPIDS,"The normalized value in BLU units (SPOT analysis, Myo5 SH3)",[1],123.1 BLU
